# Laboratory results taken from ChEMBL document CHEMBL4825708 (J Med Chem, 2021).
# Tests used:
# [1] = in vitro; conditions: mouse, mouse liver microsomes
# [2] = biological target: CYP2C9 (Homo sapiens, UniProt P11712); test: Time dependent inhibition of CYP2C9 in human liver microsomes using s-warfarin as substrate incubated for 30 mins by LC-MS/MS analysis
# [3] = system: MCF7; test: cells; conditions: Homo sapiens, MCF7, 72 h
# Description: Antiproliferative activity against human MCF-7 cells incubated for 72 hrs by Cell-titer Glo assay
# [4] = Kinetic solubility of compound at pH 7.4; conditions: buffer
# [5] = in vitro; conditions: dog, dog hepatocytes
# [6] = biological target: Cytochrome P450 2C9 (Homo sapiens, UniProt P11712); test: Reversible inhibition of CYP2C9 in human liver microsomes using (s)-warfarin as substrate preincubated for 30 mins followed by NADPH addition by LC/MS/MS analysis
# [7] = in vitro; conditions: mouse, mouse hepatocytes
# [8] = biological target: Voltage-gated inwardly rectifying potassium channel KCNH2 (Homo sapiens, UniProt Q12809); test: Inhibition of human ERG expressed in HEK293 cells incubated for 5 mins by patch clamp assay
# [9] = Half life in cynomolgus monkey at 1 mg/kg, iv or po measured after 0.033 to 24 hrs by LC/MS/MS analysis; conditions: in vivo
# [10] = biological target: Nav1.5 (Homo sapiens, UniProt Q14524); test: Inhibition of human Nav1.5 expressed in CHO cells at 10 uM by QPatch HT assay; conditions: CHO cells expressing human Nav1.5
# [11] = in vivo; conditions: Sprague-Dawley, rat, po, 100 mg/kg
# [12] = in vitro; conditions: cynomolgus monkey, cynomolgus monkey liver microsomes
# [13] = biological target: T1, CYP3A4 (Homo sapiens, UniProt P08684); test: Time dependent inhibition of CYP3A4 in human liver microsomes using testosterone as substrate incubated for 10 mins by LC-MS/MS analysis
# [14] = Distribution coefficient, logD of the compound at pH 7.4; conditions: octanol/water
# [15] = Volume of distribution at steady state in Sprague-Dawley rat at 1 mg/kg, iv or po measured after 0.033 to 24 hrs by LC/MS/MS analysis; conditions: in vivo
# [16] = in vitro; conditions: human, hepatocytes
# [17] = Volume of distribution at steady state in cynomolgus monkey at 1 mg/kg, iv or po measured after 0.033 to 24 hrs by LC/MS/MS analysis; conditions: in vivo
# [18] = biological target: CYP2D6 (Homo sapiens, UniProt P10635); test: Time dependent inhibition of CYP2D6 in human liver microsomes using dextromethorphan as substrate incubated for 10 mins by LC-MS/MS analysis
# [19] = biological target: CYP2C19 (Homo sapiens, UniProt P33261); test: Time dependent inhibition of CYP2C19 in human liver microsomes using (s)-mephenytoin as substrate incubated for 40 mins by LC-MS/MS analysis
# [20] = in vivo; conditions: Sprague-Dawley, rat, iv, 1 mg/kg
# [21] = in vivo; conditions: beagle, dog, po, 1 mg/kg
# [22] = biological target: T2, Estrogen receptor (Homo sapiens, UniProt P03372); conditions: mcf7
# T2 sequence (P03372 whole entry): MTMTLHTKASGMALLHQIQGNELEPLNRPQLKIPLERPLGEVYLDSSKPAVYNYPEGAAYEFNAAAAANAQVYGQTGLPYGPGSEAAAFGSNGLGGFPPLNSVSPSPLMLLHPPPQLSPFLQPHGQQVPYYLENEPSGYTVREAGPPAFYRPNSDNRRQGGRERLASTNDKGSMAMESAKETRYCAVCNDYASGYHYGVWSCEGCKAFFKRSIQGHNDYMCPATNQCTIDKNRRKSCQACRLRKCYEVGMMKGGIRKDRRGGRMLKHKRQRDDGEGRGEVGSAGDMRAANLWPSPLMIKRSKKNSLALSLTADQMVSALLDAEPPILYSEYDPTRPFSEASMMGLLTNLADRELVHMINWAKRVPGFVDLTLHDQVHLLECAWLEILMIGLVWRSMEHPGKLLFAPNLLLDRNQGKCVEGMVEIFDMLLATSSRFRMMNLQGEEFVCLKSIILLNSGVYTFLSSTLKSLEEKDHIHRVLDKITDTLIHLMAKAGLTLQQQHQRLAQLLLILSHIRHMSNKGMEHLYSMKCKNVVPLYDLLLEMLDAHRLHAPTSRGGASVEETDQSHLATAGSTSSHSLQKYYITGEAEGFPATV
# Description: Induction of estrogen receptor degradation in human MCF7 cells incubated for 4 hrs by Alexafluor -488 conjugate anti-mouse IgG staining based fluorescence method
# [23] = in vitro; conditions: cynomolgus monkey, cynomolgus monkey hepatocytes
# [24] = in vivo; conditions: beagle, dog, iv, 1 mg/kg
# [25] = biological target: Cytochrome P450 2D6 (Homo sapiens, UniProt P10635); test: Reversible inhibition of CYP2D6 in human liver microsomes using dextromethorphan as substrate preincubated for 10 mins followed by NADPH addition by LC/MS/MS analysis
# [26] = in vitro; conditions: human, microsomes
# [27] = in vivo; conditions: cynomolgus monkey, po, 100 mg/kg
# [28] = biological target: Cytochrome P450 2C19 (Homo sapiens, UniProt P33261); test: Reversible inhibition of CYP2C19 in human liver microsomes using (S)-Mephenytoin as substrate preincubated for 40 mins followed by NADPH addition by LC/MS/MS analysis
# [29] = Apparent permeability in MDCK cells across apical to basolateral side at 10 uM incubated for 3 hrs by LC-MS/MS analysis; conditions: dog
# [30] = Volume of distribution at steady state in Beagle dog at 1 mg/kg, iv or po measured after 0.033 to 24 hrs by LC/MS/MS analysis; conditions: in vivo
# [31] = in vitro; conditions: rat, hepatocytes
# [32] = in vivo; conditions: cynomolgus monkey, iv, 1 mg/kg
# [33] = biological target: T3, CYP1A2 (Homo sapiens, UniProt P05177); test: Time dependent inhibition of CYP1A2 in human liver microsomes using phenacetin as substrate incubated for 30 mins by LC-MS/MS analysis
# T3 sequence (P05177 whole entry): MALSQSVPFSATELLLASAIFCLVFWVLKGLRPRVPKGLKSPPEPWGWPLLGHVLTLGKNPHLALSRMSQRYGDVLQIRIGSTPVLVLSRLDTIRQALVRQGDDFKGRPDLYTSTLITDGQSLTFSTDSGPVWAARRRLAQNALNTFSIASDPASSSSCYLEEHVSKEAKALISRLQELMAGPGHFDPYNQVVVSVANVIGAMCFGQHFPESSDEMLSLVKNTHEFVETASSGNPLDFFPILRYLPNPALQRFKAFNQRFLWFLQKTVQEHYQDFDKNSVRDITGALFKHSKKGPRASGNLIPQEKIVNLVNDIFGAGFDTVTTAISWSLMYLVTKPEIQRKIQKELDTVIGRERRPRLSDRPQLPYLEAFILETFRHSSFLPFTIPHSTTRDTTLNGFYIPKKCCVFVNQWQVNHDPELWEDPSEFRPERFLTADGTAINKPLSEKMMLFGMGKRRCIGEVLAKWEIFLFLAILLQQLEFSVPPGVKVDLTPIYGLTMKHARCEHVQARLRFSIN
# [34] = biological target: T2, Estrogen receptor
# Description: Antagonist activity at estrogen receptor in human T47D cells incubated for 18 hrs by ultra high sensitivity luminescence reporter gene assay
# [35] = Half life in Sprague-Dawley rat at 1 mg/kg, iv or po measured after 0.033 to 24 hrs by LC/MS/MS analysis; conditions: in vivo
# [36] = in vivo; conditions: cynomolgus monkey, po, 1 mg/kg
# [37] = Half life in Beagle dog at 1 mg/kg, iv or po measured after 0.033 to 24 hrs by LC/MS/MS analysis; conditions: in vivo
# [38] = in vivo; conditions: Sprague-Dawley, rat, po, 1 mg/kg
# [39] = biological target: T1, CYP3A4; test: Time dependent inhibition of CYP3A4 in human liver microsomes using midazolam as substrate incubated for 10 mins by LC-MS/MS analysis
# [40] = in vitro; conditions: dog, dog liver microsomes
# [41] = biological target: Cav1.2 (Homo sapiens, UniProt Q13936); test: Inhibition of human Cav1.2 expressed in CHO cells at 10 uM by QPatch HT assay; conditions: CHO cells expressing human Cav1.2
# [42] = in vitro; conditions: rat, microsomes
# T1 sequence (P08684 whole entry): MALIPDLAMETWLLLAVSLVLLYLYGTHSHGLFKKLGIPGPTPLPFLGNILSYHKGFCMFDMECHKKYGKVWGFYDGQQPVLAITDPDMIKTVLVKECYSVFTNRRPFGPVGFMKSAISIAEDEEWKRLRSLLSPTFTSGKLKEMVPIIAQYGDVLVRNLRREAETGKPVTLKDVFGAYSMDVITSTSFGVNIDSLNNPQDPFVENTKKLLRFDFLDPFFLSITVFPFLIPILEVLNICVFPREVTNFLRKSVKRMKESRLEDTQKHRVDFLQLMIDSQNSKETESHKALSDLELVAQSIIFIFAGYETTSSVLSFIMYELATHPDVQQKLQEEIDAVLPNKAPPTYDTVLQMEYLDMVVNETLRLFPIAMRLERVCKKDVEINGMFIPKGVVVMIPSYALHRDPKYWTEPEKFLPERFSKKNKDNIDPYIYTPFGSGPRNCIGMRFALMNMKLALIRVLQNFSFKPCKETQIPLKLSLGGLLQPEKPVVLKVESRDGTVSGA
# Chain of Nav1.5 (Q14524 whole entry): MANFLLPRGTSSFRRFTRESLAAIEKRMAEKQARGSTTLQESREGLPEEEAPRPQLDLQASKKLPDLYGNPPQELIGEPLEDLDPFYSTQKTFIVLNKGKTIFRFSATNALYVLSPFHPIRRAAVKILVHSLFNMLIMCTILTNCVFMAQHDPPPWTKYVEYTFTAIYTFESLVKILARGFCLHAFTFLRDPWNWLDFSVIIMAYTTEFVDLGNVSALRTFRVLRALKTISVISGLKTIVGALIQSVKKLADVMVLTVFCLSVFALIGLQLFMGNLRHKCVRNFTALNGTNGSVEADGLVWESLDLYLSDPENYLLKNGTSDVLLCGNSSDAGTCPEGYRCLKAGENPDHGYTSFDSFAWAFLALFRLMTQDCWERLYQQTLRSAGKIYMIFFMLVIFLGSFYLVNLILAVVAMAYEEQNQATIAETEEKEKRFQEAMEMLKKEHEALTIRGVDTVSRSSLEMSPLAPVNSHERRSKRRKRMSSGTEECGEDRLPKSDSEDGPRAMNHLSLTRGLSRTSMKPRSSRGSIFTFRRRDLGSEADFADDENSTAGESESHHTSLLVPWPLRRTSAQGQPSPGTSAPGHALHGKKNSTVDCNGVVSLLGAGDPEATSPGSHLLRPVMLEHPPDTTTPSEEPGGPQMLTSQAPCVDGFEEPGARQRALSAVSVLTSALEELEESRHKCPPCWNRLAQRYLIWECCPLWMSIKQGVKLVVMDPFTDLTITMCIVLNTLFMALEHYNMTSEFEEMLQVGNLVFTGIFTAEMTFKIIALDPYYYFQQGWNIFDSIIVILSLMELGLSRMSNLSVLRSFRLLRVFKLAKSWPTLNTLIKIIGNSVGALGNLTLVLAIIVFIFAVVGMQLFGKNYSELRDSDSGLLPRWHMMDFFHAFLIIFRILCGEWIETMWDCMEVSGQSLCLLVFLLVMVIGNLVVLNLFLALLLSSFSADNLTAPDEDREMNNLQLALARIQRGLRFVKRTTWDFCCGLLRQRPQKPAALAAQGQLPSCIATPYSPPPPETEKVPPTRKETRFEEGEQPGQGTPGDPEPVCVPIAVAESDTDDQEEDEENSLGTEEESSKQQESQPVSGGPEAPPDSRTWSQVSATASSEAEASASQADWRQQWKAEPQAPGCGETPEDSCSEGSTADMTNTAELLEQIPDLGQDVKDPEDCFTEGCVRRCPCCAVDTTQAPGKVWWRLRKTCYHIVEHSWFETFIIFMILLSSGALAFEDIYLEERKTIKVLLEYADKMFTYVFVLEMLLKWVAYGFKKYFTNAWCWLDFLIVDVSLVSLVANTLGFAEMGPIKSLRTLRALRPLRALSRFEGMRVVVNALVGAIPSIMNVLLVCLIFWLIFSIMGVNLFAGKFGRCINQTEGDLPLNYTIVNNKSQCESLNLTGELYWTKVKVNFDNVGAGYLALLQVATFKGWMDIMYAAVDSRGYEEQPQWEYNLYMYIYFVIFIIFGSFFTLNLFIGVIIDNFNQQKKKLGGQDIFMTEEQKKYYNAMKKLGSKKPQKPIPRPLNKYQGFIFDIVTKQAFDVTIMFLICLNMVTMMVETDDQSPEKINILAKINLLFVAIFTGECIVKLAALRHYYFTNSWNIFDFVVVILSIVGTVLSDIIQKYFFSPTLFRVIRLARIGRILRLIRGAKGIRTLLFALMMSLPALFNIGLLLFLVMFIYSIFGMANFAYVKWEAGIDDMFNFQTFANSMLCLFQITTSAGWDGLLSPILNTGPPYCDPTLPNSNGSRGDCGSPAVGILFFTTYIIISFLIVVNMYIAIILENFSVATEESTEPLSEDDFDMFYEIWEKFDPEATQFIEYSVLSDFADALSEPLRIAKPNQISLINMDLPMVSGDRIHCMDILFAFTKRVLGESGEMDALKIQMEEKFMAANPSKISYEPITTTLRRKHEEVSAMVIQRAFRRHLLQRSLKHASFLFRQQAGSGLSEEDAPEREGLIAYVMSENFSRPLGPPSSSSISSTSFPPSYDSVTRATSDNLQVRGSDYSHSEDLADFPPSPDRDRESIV
# Chain of Cytochrome P450 2C19 (P33261 whole entry): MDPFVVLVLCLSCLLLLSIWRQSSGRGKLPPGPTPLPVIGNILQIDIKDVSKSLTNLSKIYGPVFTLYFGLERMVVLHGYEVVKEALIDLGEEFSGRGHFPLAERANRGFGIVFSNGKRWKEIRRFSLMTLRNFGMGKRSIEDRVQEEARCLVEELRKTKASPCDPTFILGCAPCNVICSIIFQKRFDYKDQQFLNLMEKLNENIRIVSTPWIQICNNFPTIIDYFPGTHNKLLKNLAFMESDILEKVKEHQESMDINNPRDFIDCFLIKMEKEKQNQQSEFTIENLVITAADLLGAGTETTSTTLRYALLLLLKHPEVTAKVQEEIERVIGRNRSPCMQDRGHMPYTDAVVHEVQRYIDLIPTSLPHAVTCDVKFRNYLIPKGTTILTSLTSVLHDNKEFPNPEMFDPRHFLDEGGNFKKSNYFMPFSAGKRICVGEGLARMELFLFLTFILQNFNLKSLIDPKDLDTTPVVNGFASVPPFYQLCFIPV
# Chain of CYP2C19 (P33261 whole entry): as above
# Chain of Voltage-gated inwardly rectifying potassium channel KCNH2 (Q12809 whole entry): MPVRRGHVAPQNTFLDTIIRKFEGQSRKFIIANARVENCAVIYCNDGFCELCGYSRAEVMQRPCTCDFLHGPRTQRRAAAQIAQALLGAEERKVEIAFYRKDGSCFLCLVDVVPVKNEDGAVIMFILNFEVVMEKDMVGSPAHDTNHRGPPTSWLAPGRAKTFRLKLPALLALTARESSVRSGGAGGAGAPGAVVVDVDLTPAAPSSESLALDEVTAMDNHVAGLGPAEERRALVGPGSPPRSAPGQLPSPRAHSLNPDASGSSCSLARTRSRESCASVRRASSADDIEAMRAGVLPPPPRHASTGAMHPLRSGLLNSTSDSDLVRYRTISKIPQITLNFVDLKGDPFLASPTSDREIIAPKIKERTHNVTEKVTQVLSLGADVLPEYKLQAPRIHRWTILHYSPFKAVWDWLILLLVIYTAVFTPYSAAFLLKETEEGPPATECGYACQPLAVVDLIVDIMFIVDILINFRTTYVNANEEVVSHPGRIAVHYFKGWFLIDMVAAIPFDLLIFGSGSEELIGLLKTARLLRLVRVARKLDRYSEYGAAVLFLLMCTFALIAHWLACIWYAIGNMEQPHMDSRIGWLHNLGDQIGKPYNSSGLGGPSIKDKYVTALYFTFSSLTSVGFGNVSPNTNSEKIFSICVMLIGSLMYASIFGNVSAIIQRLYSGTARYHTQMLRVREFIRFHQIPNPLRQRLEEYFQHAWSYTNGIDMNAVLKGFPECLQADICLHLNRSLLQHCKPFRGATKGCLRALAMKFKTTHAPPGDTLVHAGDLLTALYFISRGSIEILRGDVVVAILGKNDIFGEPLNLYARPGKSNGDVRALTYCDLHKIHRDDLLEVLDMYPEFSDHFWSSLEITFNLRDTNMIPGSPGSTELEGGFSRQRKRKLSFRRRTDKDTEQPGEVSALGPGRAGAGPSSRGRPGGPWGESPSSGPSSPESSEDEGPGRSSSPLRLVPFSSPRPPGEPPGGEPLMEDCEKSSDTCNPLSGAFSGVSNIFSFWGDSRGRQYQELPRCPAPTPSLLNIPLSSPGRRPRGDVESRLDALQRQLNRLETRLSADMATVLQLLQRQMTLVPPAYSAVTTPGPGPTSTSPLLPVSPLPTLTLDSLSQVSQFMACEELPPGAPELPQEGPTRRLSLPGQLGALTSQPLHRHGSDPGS
smiles,measurement,setting,value
C[C@@H]1Cc2c([nH]c3ccccc23)[C@@H](c2c(F)cc(NC3CN(CCCF)C3)cc2F)N1CC(F)(F)CO [GIREDESTRANT],"CLint scaled at 1 h, 1 µM",[1],3.12 L/h/kg
same,inhibition at 0.5 h,[2],19%
same,EC50,[3],0.4 nM
same,solubility kinetic,[4],135 µM
same,CLint scaled at 1 h,[5],< 0.468 L/h/kg
same,IC50,[6],> 10000 nM
same,CLint scaled at 1 h,[7],1.98 L/h/kg
same,IC50,[8],6100 nM
same,half-life,[9],7.3 h
same,inhibition at 10 µM,[10],16.7%
same,bioavailability,[11],65%
same,"CLint scaled at 1 h, 1 µM",[12],1.32 L/h/kg
same,inhibition at 10 min,[13],-4%
same,logD,[14],2.9
same,Vd,[15],15 L/kg
same,CLint scaled at 1 h,[16],0.66 L/h/kg
same,Vd,[17],9.4 L/kg
same,inhibition at 10 min,[18],8.1%
same,inhibition at 40 min,[19],1.2%
same,clearance,[20],1.26 L/h/kg
same,bioavailability,[21],55%
same,DC50,[22],0.03 nM
same,CLint scaled at 1 h,[23],1.86 L/h/kg
same,clearance,[24],0.18 L/h/kg
same,IC50,[25],> 10000 nM
same,"CLint scaled at 1 h, 1 µM",[26],0.66 L/h/kg
same,bioavailability,[27],29%
same,IC50,[28],> 10000 nM
same,"Papp A→B at 3 h, 10 µM",[29],30 nm/s
same,Vd,[30],5.1 L/kg
same,CLint scaled at 1 h,[31],1.38 L/h/kg
same,clearance,[32],1.14 L/h/kg
same,inhibition at 0.5 h,[33],1%
same,IC50,[34],0.05 nM
same,half-life,[35],8 h
same,bioavailability,[36],17%
same,half-life,[37],24 h
same,bioavailability,[38],41%
same,inhibition at 10 min,[39],-0.9%
same,"CLint scaled at 1 h, 1 µM",[40],0.78 L/h/kg
same,inhibition at 10 µM,[41],15.7%
same,"CLint scaled at 1 h, 1 µM",[42],1.14 L/h/kg
